According to patent publication US20080069785A1, “PEST-CONTROL COMPOSITIONS, AND METHODS AND PRODUCTS UTILIZING SAME” (priority 2004, published 2008):

Test system: cockroaches (Blattella germanica)
Assay: Weeklong surface area toxicity test on cockroaches (Example 19)
Format: in vivo
Conditions: for cockroaches alive (of five): 0-1 days; for cockroaches alive (of five per cup): 3-4 days treatment
Procedure: In order determine the toxicity of the formulation to the insect after application to a surface over a period of time, the following test was performed. […] Cockroaches were placed in the cups on the first day following the application of the formulations, on the third day following the application of the formulations, and on the sixth day following the application of the formulations in order to monitor the toxicity of the formulations after a period of time had elapsed. The mortality of the cockroaches was then recorded at the time intervals noted. The five cockroaches placed in each cup were one week old cockroaches (Blattella germanica) which had been reared at twenty seven degrees centigrade, at sixty five percent relative humidity, and on a twelve hour light to dark photoperiod. Each of the cups had Fluon®AD1 treated sides to prevent the escape of the cockroaches.

CCCCCCCCCC(C)=O [Undecanone, 2-Undecanone]
cockroaches alive (of five) (0.02 μL/cm^2 (1 μL), 5 min): 5
cockroaches alive (of five) (0.02 μL/cm^2 (1 μL), 10 min): 5
cockroaches alive (of five) (0.02 μL/cm^2 (1 μL), 15 min): 5
cockroaches alive (of five) (0.02 μL/cm^2 (1 μL), 30 min): 5
cockroaches alive (of five) (0.02 μL/cm^2 (1 μL), 60 min): 5
cockroaches alive (of five) (0.02 μL/cm^2 (1 μL), 90 min): 5
cockroaches alive (of five) (0.02 μL/cm^2 (1 μL), 2 h): 5
cockroaches alive (of five) (0.02 μL/cm^2 (1 μL), 4 h): 5
cockroaches alive (of five) (0.02 μL/cm^2 (1 μL), 17.5 h): 5
cockroaches alive (of five) (0.02 μL/cm^2 (1 μL), 18 h): 5
cockroaches alive (of five) (0.02 μL/cm^2 (1 μL), 21 h): 5
cockroaches alive (of five) (0.02 μL/cm^2 (1 μL), 24 h): 5
cockroaches alive (of five) (0.02 μL/cm^2 (1 μL), 27.5 h): 5
cockroaches alive (of five) (0.02 μL/cm^2 (1 μL), 29 h): 5
cockroaches alive (of five) (0.02 μL/cm^2 (1 μL), 30 h): 5
cockroaches alive (of five) (0.09 μL/cm^2 (5 μL), 5 min): 5
cockroaches alive (of five) (0.09 μL/cm^2 (5 μL), 10 min): 5
cockroaches alive (of five) (0.09 μL/cm^2 (5 μL), 15 min): 4
cockroaches alive (of five) (0.09 μL/cm^2 (5 μL), 30 min): 4
cockroaches alive (of five) (0.09 μL/cm^2 (5 μL), 60 min): 4
cockroaches alive (of five) (0.09 μL/cm^2 (5 μL), 90 min): 4
cockroaches alive (of five) (0.09 μL/cm^2 (5 μL), 2 h): 4
cockroaches alive (of five) (0.09 μL/cm^2 (5 μL), 4 h): 4
cockroaches alive (of five) (0.09 μL/cm^2 (5 μL), 17.5 h): 4
cockroaches alive (of five) (0.09 μL/cm^2 (5 μL), 18 h): 4
cockroaches alive (of five) (0.09 μL/cm^2 (5 μL), 21 h): 4
cockroaches alive (of five) (0.09 μL/cm^2 (5 μL), 24 h): 4
cockroaches alive (of five) (0.09 μL/cm^2 (5 μL), 27.5 h): 3
cockroaches alive (of five) (0.09 μL/cm^2 (5 μL), 29 h): 3
cockroaches alive (of five) (0.09 μL/cm^2 (5 μL), 30 h): 3
cockroaches alive (of five) (0.19 μL/cm^2 (10 μL), 5 min): 5
cockroaches alive (of five) (0.19 μL/cm^2 (10 μL), 10 min): 5
cockroaches alive (of five) (0.19 μL/cm^2 (10 μL), 15 min): 5
cockroaches alive (of five) (0.19 μL/cm^2 (10 μL), 30 min): 2
cockroaches alive (of five) (0.19 μL/cm^2 (10 μL), 60 min): 0
cockroaches alive (of five) (0.19 μL/cm^2 (10 μL), 90 min): 0
cockroaches alive (of five) (0.19 μL/cm^2 (10 μL), 2 h): 0
cockroaches alive (of five) (0.19 μL/cm^2 (10 μL), 4 h): 0
cockroaches alive (of five) (0.19 μL/cm^2 (10 μL), 17.5 h): 0
cockroaches alive (of five) (0.19 μL/cm^2 (10 μL), 18 h): 0
cockroaches alive (of five) (0.19 μL/cm^2 (10 μL), 21 h): 0
cockroaches alive (of five) (0.19 μL/cm^2 (10 μL), 24 h): 0
cockroaches alive (of five) (0.19 μL/cm^2 (10 μL), 27.5 h): 0
cockroaches alive (of five) (0.19 μL/cm^2 (10 μL), 29 h): 0
cockroaches alive (of five) (0.19 μL/cm^2 (10 μL), 30 h): 0
cockroaches alive (of five) (0.95 μL/cm^2 (50 μL), 5 min): 0
cockroaches alive (of five) (0.95 μL/cm^2 (50 μL), 10 min): 0
cockroaches alive (of five) (0.95 μL/cm^2 (50 μL), 15 min): 0
cockroaches alive (of five) (0.95 μL/cm^2 (50 μL), 30 min): 0
cockroaches alive (of five) (0.95 μL/cm^2 (50 μL), 60 min): 0
cockroaches alive (of five) (0.95 μL/cm^2 (50 μL), 90 min): 0
cockroaches alive (of five) (0.95 μL/cm^2 (50 μL), 2 h): 0
cockroaches alive (of five) (0.95 μL/cm^2 (50 μL), 4 h): 0
cockroaches alive (of five) (0.95 μL/cm^2 (50 μL), 17.5 h): 0
cockroaches alive (of five) (0.95 μL/cm^2 (50 μL), 18 h): 0
cockroaches alive (of five) (0.95 μL/cm^2 (50 μL), 21 h): 0
cockroaches alive (of five) (0.95 μL/cm^2 (50 μL), 24 h): 0
cockroaches alive (of five) (0.95 μL/cm^2 (50 μL), 27.5 h): 0
cockroaches alive (of five) (0.95 μL/cm^2 (50 μL), 29 h): 0
cockroaches alive (of five) (0.95 μL/cm^2 (50 μL), 30 h): 0
cockroaches alive (of five per cup) (0.02 μL/cm^2 (1 μL), 5 min): 5
cockroaches alive (of five per cup) (0.02 μL/cm^2 (1 μL), 10 min): 5
cockroaches alive (of five per cup) (0.02 μL/cm^2 (1 μL), 15 min): 5
cockroaches alive (of five per cup) (0.02 μL/cm^2 (1 μL), 30 min): 5
cockroaches alive (of five per cup) (0.02 μL/cm^2 (1 μL), 60 min): 5
cockroaches alive (of five per cup) (0.02 μL/cm^2 (1 μL), 90 min): 5
cockroaches alive (of five per cup) (0.02 μL/cm^2 (1 μL), 2 h): 5
cockroaches alive (of five per cup) (0.02 μL/cm^2 (1 μL), 4 h): 5
cockroaches alive (of five per cup) (0.02 μL/cm^2 (1 μL), 23 h): 5
cockroaches alive (of five per cup) (0.02 μL/cm^2 (1 μL), 24 h): 5
cockroaches alive (of five per cup) (0.02 μL/cm^2 (1 μL), 27 h): 5
cockroaches alive (of five per cup) (0.02 μL/cm^2 (1 μL), 30 h): 5
cockroaches alive (of five per cup) (0.09 μL/cm^2 (5 μL), 5 min): 5
cockroaches alive (of five per cup) (0.09 μL/cm^2 (5 μL), 10 min): 5
cockroaches alive (of five per cup) (0.09 μL/cm^2 (5 μL), 15 min): 5
cockroaches alive (of five per cup) (0.09 μL/cm^2 (5 μL), 30 min): 5
cockroaches alive (of five per cup) (0.09 μL/cm^2 (5 μL), 60 min): 5
cockroaches alive (of five per cup) (0.09 μL/cm^2 (5 μL), 90 min): 5
cockroaches alive (of five per cup) (0.09 μL/cm^2 (5 μL), 2 h): 5
cockroaches alive (of five per cup) (0.09 μL/cm^2 (5 μL), 4 h): 5
